Results reported in patent US20140234455A1, “ANTIMICROBIAL COMPOSITION, METHOD FOR ITS PREPARATION AND ITS USE” (PATOLAB OY, priority 2011, published 2014).

What was measured:
Type in all cases: cell-based
Settings in all cases: tested after one week washing, 24 hours incubation, Example 2 stock diluted 1:1 with tap water
[1] = tested on: E. coli; test: Challenge test on a steel plate (EN 13697)
Method: The test was performed after one week washing the steel plate with the composition.

[2] = tested on: C. albicans; test: Challenge test on a steel plate (EN 13697)
[3] = tested on: PS. aerug.; test: Challenge test on a steel plate (EN 13697)
[4] = tested on: A. niger; test: Challenge test on a steel plate (EN 13697)
[5] = tested on: Staphylococcus aureus (MRSA); test: ISO 20645/20743 challenge test in accordance with EN 13697 on a steel plate
[6] = tested on: Enteroc.; test: Challenge test on a steel plate (EN 13697)

CCO [70% ethanol, ethanol]
log 1: Reduction in growth of microorganisms, E. coli [1] | Reduction in growth of microorganisms, C. albicans [2] | Reduction in growth of microorganisms, PS. aerug. [3] | Reduction in growth of microorganisms, A. niger [4] | Reduction in growth of microorganisms, MRSA (Staphylococcus aureus) [5] | Reduction in growth of microorganisms, Enteroc. [6]
